Measurements: patent US11752215B2, “Targeting tumor cells with chemotherapeutic agents conjugated to anti-matriptase antibodies by in vivo cleavable linking moieties” (priority 2016, dated 2023)
Entries after “also recorded” stand apart in the source; their conditions may differ.

Experiments:
MM cells = assay: MM cell proliferation, DOX-conjugates alone and combined with thalidomide; type: cell-based; conditions: thalidomide alone
Source text: FIGS. 6A and B illustrate that thalidomide sensitizes MM cells to M69-DOX, but not M24-DOX: (A) comparison of treatment of MM cells by M69-DOX alone with the M69-DOX/thalidomide combination treatment; and (B) comparison of treatment of MM cells by M24-DOX alone with the M24-DOX/thalidomide combination treatment.
Thalidomide is a therapeutic for multiple myeloma treatment, and the combination of thalidomide and dexamethasone is one of the most common regimens for treatment of patients with multiple myeloma, with an response rate of up to 60-70% (Denz, U., Eur. J. Cancer., 2006, 42:1591-1600; Gieseler, F., et al., Thromb. Haemost., 2008, 99: 1001-1007). The efficacy of both DOX-conjugates in combination with current MM therapeutics such as thalidomide was tested.

matriptase = assay: Matriptase activation in MM cells (Western analysis with mAb M69); type: cell-based, human; conditions: 24-hour treatment, 50 μM
Protocol: (§1) FIG. 5 illustrates activation of matriptase in MM cells induced by thalidomide. MM cells (MM.1S) were treated with varying concentrations of thalidomide as indicated for 24 hours followed by Western analyses to detect the activation of matriptase using a specific monoclonal antibody (M69) to the active form of the enzyme. […] GAPDH served as control.
as §1, with “7” for “5”
To examine the increase in cytotoxicity that resulted with the thalidomide and M69-DOX conjugate we measured the effect of thalidomide on expression of activated matriptase.

PC-3 prostate carcinoma = conditions: PC-3 xenograft; cited from earlier work
[1] = system: bone marrow-derived MSCs (lack matriptase expression); assay: Tolerance of bone marrow-derived mesenchymal stromal cells (cell count); type: cell-based, human; conditions: 5 nM, 4 days
Protocol: Cell numbers were determined by Vi-Cell counter.
Human bone marrow-derived MSCs, which lack matriptase expression, were used as a control to determine the cytotoxic selectivity of M24-DOX as shown in FIG. 4 where bone marrow-derived mesenchymal stromal cells (5×10^4/well, 24-well plates) were treated with M24-DOX or free DOX at varying concentrations for 4 days. Cell numbers were determined by Vi-Cell counter.

[2] = system: breast tumors (MDA-MB468); assay: Human breast xenograft tumor model, M69-DOX; type: in vivo, NOD/SCID mice; conditions: 2 mg/kg
Protocol: FIG. 8 illustrates the M69-DOX conjugate targeting active matriptase inhibited breast tumor growth in vivo, comparing treatment by M69-DOX at 10 mg/Kg and 20 mg/Kg doses with treatment by DOX at 2 mg/Kg dose and the control.
FIG. 9 illustrates reduction of the tumor weight by M69-DOX at 10 mg/Kg and 20 mg/Kg doses in comparison with treatment by DOX at 2 mg/Kg dose and the control.
To assess the efficacy of M69-DOX to suppress tumor growth in vivo, a human breast xenograft tumor model was used. NOD/SCID mice bearing breast tumors (MDA-MB468) were treated twice weekly with M69-DOX at either 20 or 10 mg/kg, as well as treated with DOX at 2 mg/kg. […] As a single mAb was attached with 7 molecules of DOX, a dose at 10 mg/kg of M69-DOX is equivalent to […] of DOX administered.
Reduced Weights of Tumor Masses in Mice Treated with M69-DOX. At the end of the treatment course, the tumor masses were collected from the experimental mice, and were weighed. The average weights of tumors from the groups treated with M69-DOX at either dose as well as treated with DOX were reduced to about 50% of the one from the untreated control group (FIG. 9). Significant reduction in tumor weights by M69-DOX further confirms the efficacy of site-directed delivery of DOX to tumor cells expressing activated matriptase.

**Q.** Which “effect on MM cell proliferation” value (MM cells) does the source give for `O=C1CCC(N2C(=O)c3ccccc3C2=O)C(=O)N1` (stereo not drawn) [thalidomide] here?
**A.** no effect on MM cell proliferation; also recorded: little effect on the cell proliferation of MM cells

**Q.** What about the “activation of matriptase in MM cells” value (matriptase) of the same compound?
**A.** markedly enhanced

**Q.** For ecotin: matriptase inhibitor, which “tumor growth and metastasis formation” value (PC-3 prostate carcinoma) is on record?
**A.** Reduced tumor growth and metastasis formation

**Q.** What does the source list for `COc1cccc2c1C(=O)c1c(O)c3c(c(O)c1C2=O)C[C@@](O)(C(=O)CO)C[C@@H]3OC1CC(N)C(O)C(C)O1` (stereo partly drawn) [DOX, (8S,10S)-10-(4-amino-5-hydroxy-6-methyl-tetrahydro-2H-pyran-2-yloxy)-6,8,11-trihydroxy-8-(2-hydroxyacetyl)-1-methoxy-7,8,9,10-tetrahydrotetracene-5,12-dione]?
**A.** effect on MSC proliferation [1]: significantly inhibit cell proliferation; tumor growth [2]: significantly abolished; average weights of tumors relative to untreated control group ([2]; end of treatment): about 50%
